Experimental findings from patent publication US6932968B1, “Erythropoietin (EPO) peptides and antibodies directed against these” (Dade Behring Marburg GmbH, priority 1989, dated 2005) are described below.

This test in a line: Immunization of rabbits with peptide-KLH conjugates, antibody detection by solid-phase ELISA / Western Blot. The class given is in vivo. The conditions noted are these: high-titer epitope-specific anti-EPO antibodies. An excerpt: In order to produce antibodies specific for EPO peptides, the peptide-KLH conjugates were emulsified with adjuvants and injected into rabbits in accordance with a 5-week immunization regimen. After this time the animals had produced specific antibodies and were bled.
A solid-phase ELISA was used to assay the sera for peptide or EPO specificity. The content of peptide-specific and EPO-specific antibodies in the antisera or in the antibody fractions which had been purified by affinity chromatography was determined in plastic microtiter plates, which were coated with purified EPO or with EPO peptides, using an enzyme-coupled anti-rabbit-Ig antiserum. In parallel with this, the antibodies were examined in a Western Blot to detect the specific EPO bands of 34–38 kDa.
Rabbits were immunized with […] of antigen per animal on each occasion for a period of 5 weeks. At the first immunization, the animals each received 0.4 mg of antigen in complete Freund's adjuvant (CFA) subcutaneously at 8 immunization sites in the vicinity of the lymph nodes. This was followed 2 weeks later by subcutaneous immunization with 0.8 mg of antigen/animal in CFA. After a further 2 weeks, the animals received intravenous administration of 0.1 mg of antigen in Aerosil on each of 5 consecutive days. 3 days later they were bled, and the individual antisera were obtained.
20 μg/ml EPO or EPO-specific peptides were coupled in carbonate buffer in plastic microtiter plates at 4° C. overnight. Before carrying out the assays, the plates were washed twice with PBS, saturated with PBS/0.5% BSA for 30 minutes and then washed three times with PBS.
The plates saturated with BSA were incubated with dilutions of the anti-EPO rabbit antisera or of the purified antibody fractions for 2 hours. After this time they were washed with PBS and incubated with anti-rabbit Ig anti-serum, which was coupled to alkaline phosphatase, for 2 hours. […] The reaction was stopped with 1 M NaOH after one hour, and the optical density at […] was measured. […]
Turning to “CDSRVLERYLLEAKEAE [P4/1, EPO peptide, amino-acid positions 7 to 23]”, the “Immunogenicity of the EPO peptide” value is on record as “highly immunogenic”.
The same measure for “KRMEVGQQAVEV [P3/1, EPO peptide, amino-acid positions 52 to 63]”: “highly immunogenic”.
As for “SSQPWEPLQLHV [P1/1, EPO peptide, amino-acid positions 84 to 95]”, the “Immunogenicity of the EPO peptide” value is on record as “highly immunogenic”.
